# Assay results from patent publication US20230293460A1, “METHOD FOR TREATING DERMATITIS” (CHANG GUNG MEMORIAL HOSPITAL, LINKOU, priority 2020, published 2023).
# System: dermatitis in the hands
# Test: Example 4: middle-aged patient with dermatitis in the hands
# Type: in vivo, human
# Settings: given together: clobetasol ointment (0.025%) twice a day 21 days, desloratadine 5 mg once a day + hydroxyzine 25 mg twice a day 21 days, cyclosporine 100 mg twice a day 28 days; one patient
row,Structure (SMILES),scaling and chronic inflammation
1,OCCOCCN1CCN(C(c2ccccc2)c2ccc(Cl)cc2)CC1 (centres unmarked) [hydroxyzine],did not improve
2,Clc1ccc2c(c1)CCc1cccnc1C2=C1CCNCC1 [desloratadine],did not improve
